For experiment [1], the target named is T1, Adenosine receptor A1 (Homo sapiens) (UniProt P30542).
T1 sequence (whole entry): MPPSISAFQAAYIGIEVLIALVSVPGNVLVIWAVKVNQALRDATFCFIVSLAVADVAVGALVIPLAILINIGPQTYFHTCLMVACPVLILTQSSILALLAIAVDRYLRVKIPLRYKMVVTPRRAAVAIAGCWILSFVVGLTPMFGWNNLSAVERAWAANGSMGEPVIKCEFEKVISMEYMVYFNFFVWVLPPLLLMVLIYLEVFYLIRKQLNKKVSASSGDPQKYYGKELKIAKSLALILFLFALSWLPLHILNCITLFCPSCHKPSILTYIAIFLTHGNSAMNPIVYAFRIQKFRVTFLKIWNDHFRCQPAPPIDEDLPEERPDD
The experiment can be described thus: Displacement of [3H]DPCPX from human recombinant adenosine A1 receptor expressed in HEK293T cells at 100 uM. To be noted: HEK-293T. In kind it is cell-based. In general terms: Displacement assays read how much labelled ligand stays bound in the presence of the test substance.

In experiment [2] the target is T2, Adenosine receptor A2a (Homo sapiens, UniProt P29274). The experiment can be described thus: Displacement of [3H]CGS21680 from human recombinant adenosine A2A receptor expressed in HEK293T cells at 100 uM. In kind it is cell-based. To be noted: HEK-293T.
T2 sequence (P29274 whole entry): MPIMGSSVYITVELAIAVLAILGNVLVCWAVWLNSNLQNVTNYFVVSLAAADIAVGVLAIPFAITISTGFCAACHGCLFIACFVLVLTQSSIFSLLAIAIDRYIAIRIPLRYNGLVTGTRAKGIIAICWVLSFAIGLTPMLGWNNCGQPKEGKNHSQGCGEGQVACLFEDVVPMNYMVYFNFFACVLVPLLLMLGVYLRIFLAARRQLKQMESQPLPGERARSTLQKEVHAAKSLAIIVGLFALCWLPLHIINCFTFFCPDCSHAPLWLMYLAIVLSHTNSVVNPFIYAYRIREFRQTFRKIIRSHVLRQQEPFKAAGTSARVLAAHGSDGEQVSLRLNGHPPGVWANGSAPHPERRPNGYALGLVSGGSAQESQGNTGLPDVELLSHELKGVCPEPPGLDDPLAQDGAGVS
Experiment [3] has as its target T3, Adenosine receptor A3 (Homo sapiens) (UniProt P0DMS8).
T3 sequence (whole entry): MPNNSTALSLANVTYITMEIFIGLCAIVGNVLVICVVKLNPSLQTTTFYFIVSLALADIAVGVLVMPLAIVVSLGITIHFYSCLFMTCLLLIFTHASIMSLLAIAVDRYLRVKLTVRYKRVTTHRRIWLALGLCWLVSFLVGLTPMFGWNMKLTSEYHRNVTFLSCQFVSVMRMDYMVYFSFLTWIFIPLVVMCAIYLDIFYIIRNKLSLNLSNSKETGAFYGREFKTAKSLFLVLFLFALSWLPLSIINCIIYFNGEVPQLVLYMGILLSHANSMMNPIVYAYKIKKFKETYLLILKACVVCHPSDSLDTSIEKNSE
The experiment in a line: Displacement of [3H]NECA from human recombinant adenosine A3 receptor expressed in HEK293T cells at 100 uM. To be noted: HEK-293T. It counts as cell-based.

A further experiment deals with T4, Adenosine receptor A3 (Homo sapiens, UniProt P0DMS8).
T4 sequence (P0DMS8 whole entry): T3 sequence (whole entry)
The experiment can be described thus: Displacement of [3H]NECA from human recombinant adenosine A3 receptor expressed in HEK293T cells. In kind it is cell-based, HEK-293T.

Experiment [4] concerns the target T2, Adenosine receptor A2a. The experiment in a line: biochemical.
The next experiment addresses T5, Adenosine receptor A1 (Homo sapiens, UniProt P30542).
T5 sequence (P30542 whole entry): T1 sequence (whole entry)
The experiment can be described thus: Displacement of [3H]DPCPX from human recombinant adenosine A1 receptor expressed in HEK293T cells. It counts as cell-based, HEK-293T.

Consider 9 molecules from ChEMBL document CHEMBL1142932 (Bioorg Med Chem, 2007).

With `CN1C(=O)C(N)C(c2ccncc2Cl)N(C)C1=O` (stereo unspecified), the values for the Activity (in experiment [1]; on Adenosine receptor A2a [2]; in experiment [3]) were 8%, 15% and 3%, respectively.
Turning to `Cn1c(=O)c2c(ncn2C)n(C)c1=O`, the Activity in experiment [3] stood at 9%.
With `Cn1c(=O)c2c(c3ccncc3n2C)n(C)c1=O`, the Ki (as a rule, the equilibrium dissociation constant of an inhibitor or competing ligand from its target) on Adenosine receptor A3 amounted to 3.19 µM; at Adenosine receptor A2a [4], 4.19 µM.
As to `CN1CC(Nc2cccnc2)C(=O)N(C)C1=O` (stereo unspecified), the Activity in experiment [1] is 22%; at Adenosine receptor A2a [2] it was 38%; in experiment [3], 25%.
As for `Cn1c(=O)c2c(c3ncccc3n2C)n(C)c1=O`, the results for the Ki at Adenosine receptor A1 and on Adenosine receptor A3 were 13.5 µM and 0.332 µM, respectively.
For the molecule `CN1CC(N(C)c2cccnc2)C(=O)N(C)C1=O` (stereo unspecified), the Activity in experiment [1] came out at 9%; on Adenosine receptor A2a [2], 29%; in experiment [3], 0.2%.
Take `Cn1c(=O)c2[nH]c3cccnc3c2n(C)c1=O`: the Ki at Adenosine receptor A1 came out at 0.379 µM; at Adenosine receptor A3, 0.0139 µM.
Take `Oc1c(Br)cc2[nH]c3cnccc3c2c1Br`: the values for the Ki at Adenosine receptor A1, on Adenosine receptor A3 and at Adenosine receptor A2a [4] were 7.37 µM, 2.05 µM and 4.92 µM, respectively.
As to `Cn1c(=O)c2[nH]c3cnccc3c2n(C)c1=O`, the results for the Ki on Adenosine receptor A1 and at Adenosine receptor A3 were 11.7 µM and 0.526 µM, respectively.
